Where a name gives a salt, the structure may show the parent alone.

Drawing on US9216968B2, “Heterocyclic derivative and pharmaceutical drug” (NIPPON SHINYAKU CO., LTD., priority 2011, dated 2015), this text covers IC50 for eleven compounds.

For one assay, the system named is A549 cells. The assay can be described thus: Inhibition of PGE2 production in A549 cell (IL-1β stimulated). The format is cell-based, human. The settings on record: Homo sapiens, A549, 24 h, IL-1β 5 ng/well, PGE2 in culture medium. The method in brief:
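A549 cells preincubated 60 min with compound in RPMI/3% FBS (final DMSO 0.10), then stimulated with IL-1β (5 ng/well) for 24 h at 37 °C. PGE2 measured by HTRF and PGF2α by EIA in medium; IC50 from inhibition relative to stimulated minus unstimulated production.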

The target in the next assay is human mPGES-1 (Homo sapiens (Human), UniProt O14684). The assay can be described thus: mPGES-1 inhibiting activity (microsome fractions, PGE2 by HTRF). Format: biochemical. The settings on record: microsomes from CHO-K1 cells transfected with human mPGES-1; PGH2 1 μM, 4° C., 60 seconds; read-out: mPGES-1 Inhibition IC50. In a few lines:
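PGE2 formation read by HTRF after 60 s at 4 °C with 1 μM PGH2 substrate, following 20 min compound preincubation (1% DMSO) with human mPGES-1 microsomes from transfected CHO-K1 cells. Buffer: potassium phosphate, reduced glutathione, pH 7.4; IC50 from activity relative to enzyme-free blank.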

human mPGES-1, sequence (O14684 whole entry): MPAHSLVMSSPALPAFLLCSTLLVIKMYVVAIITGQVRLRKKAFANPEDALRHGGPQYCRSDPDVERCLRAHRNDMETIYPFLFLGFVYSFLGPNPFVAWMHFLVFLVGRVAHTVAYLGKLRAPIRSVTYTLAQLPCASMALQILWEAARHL

`COCc1nc2c(C(=O)NCc3ccccc3C(F)(F)F)cc(NC(=O)c3ccccc3C(F)(F)F)cc2[nH]1` [Example 21, 2-(Methoxymethyl)-N-[2-(trifluoromethyl)benzyl]-6-({[2-(trifluoromethyl)phenyl]carbonyl}amino)-1H-benzimidazole-4-carboxamide]: the IC50 was determined as 69.4 nM with A549 cells and 8.3 nM on human mPGES-1.

Consider `CCn1cnc2c(C(=O)NC3CCCCC3)cc(NC(=O)c3ccccc3C(F)(F)F)cc21` [Example 50, N-Cyclohexyl-1-ethyl-6-({[2-(trifluoromethyl)phenyl]carbonyl}amino)-1H-benzimidazole-4-carboxamide], for which the IC50 was 810 nM in the assay on A549 cells and 140 nM on human mPGES-1.

Regarding `COCc1nc2c(C(=O)Nc3ccc4c(c3)CCC4)cc(NC(=O)c3ccccc3C(F)(F)F)cc2[nH]1` [Example 33, N-(2,3-Dihydro-1H-inden-5-yl)-2-(methoxymethyl)-6-({[2-(trifluoromethyl)phenyl]carbonyl}amino)-1H-benzimidazole-4-carboxamide hydrochloride], the IC50 came to 33.6 nM in the assay on A549 cells and 3 nM on human mPGES-1.

As to `Cc1c(Cl)cccc1NC(=O)c1cc(NC(=O)c2ccccc2C(F)(F)F)cc2[nH]c(N3CCN(C)CC3)nc12` [Example 143, N-(3-Chloro-2-methylphenyl)-2-(4-methylpiperazin-1-yl)-6-({[2-(trifluoromethyl)phenyl]carbonyl}amino)-1H-benzimidazole-4-carboxamide dihydrochloride], the IC50 in the assay on A549 cells was found to be 87.5 nM; on human mPGES-1, 5.3 nM.

Take `Cc1c(Cl)cccc1NC(=O)c1cc(NC(=O)c2ccccc2C(F)(F)F)cc2[nH]c(NC[C@H]3CCCO3)nc12` [Example 169, N-(3-Chloro-2-methylphenyl)-2-{[(2R)-tetrahydrofuran-2-ylmethyl]amino}-6-({[2-(trifluoromethyl)phenyl]carbonyl}amino)-1H-benzimidazole-4-carboxamide hydrochloride]: the figures for the IC50 in the assay on A549 cells and on human mPGES-1 were 88.6 nM and 2.4 nM, respectively.

Regarding `Cc1c(Cl)cccc1NC(=O)c1cc(NC(=O)c2c(F)cccc2Cl)cc2[nH]c([C@H]3CCCO3)nc12` [Example 127, 6-{[(2-Chloro-6-fluorophenyl)carbonyl]amino}-N-(3-chloro-2-methylphenyl)-2-[(2R)-tetrahydrofuran-2-yl]-1H-benzimidazole-4-carboxamide hydrochloride], the values for the IC50 in the assay on A549 cells and on human mPGES-1 were 144 nM and 6.3 nM, respectively.

With `COCc1nc2c(C(=O)Nc3cccc(Cl)c3CO)cc(NC(=O)c3ccccc3C(F)(F)F)cc2[nH]1` [Example 234, N-[3-Chloro-2-(hydroxymethyl)phenyl]-2-(methoxymethyl)-6-({[2-(trifluoromethyl)phenyl]carbonyl}amino)-1H-benzimidazole-4-carboxamide], the IC50 in the assay on A549 cells was 198 nM; on human mPGES-1, 97.4 nM.

Regarding `COCc1nc2c(C(=O)Nc3cccc(Cl)c3C)cc(NC(=O)c3cc(C)ccc3C(F)(F)F)cc2[nH]1` [Example 109, N-(3-Chloro-2-methylphenyl)-2-(methoxymethyl)-6-({[5-methyl-2-(trifluoromethyl)phenyl]carbonyl}amino)-1H-benzimidazole-4-carboxamide hydrochloride], the IC50 was 8.7 nM in the assay with A549 cells and 7.8 nM on human mPGES-1.

On to `O=C(Nc1cc(C(=O)NC2CCCCC2)c2nc[nH]c2c1)c1ccccc1C(F)(F)F` [Example 2, N-Cyclohexyl-6-({[2-(trifluoromethyl)phenyl]carbonyl}amino)-1H-benzimidazole-4-carboxamide], for which the IC50 in the assay on A549 cells came out at 240 nM; on human mPGES-1, 7.6 nM.

`Cc1c(Cl)cccc1NC(=O)c1cc(NC(=O)c2ccccc2C(F)(F)F)cc2[nH]c(CC(=O)N(C)C)nc12` [Example 133, N-(3-Chloro-2-methylphenyl)-2-[2-(dimethylamino)-2-oxoethyl]-6-({[2-(trifluoromethyl)phenyl]carbonyl}amino)-1H-benzimidazole-4-carboxamide hydrochloride]: the IC50 in the assay on A549 cells amounted to 488 nM; at human mPGES-1, 7 nM.

On to `Cc1c(Cl)cccc1NC(=O)c1cc(NC(=O)c2ccccc2C(F)(F)F)cc2c1OCC2` [Example 8, N-(3-Chloro-2-methylphenyl)-5-({[2-(trifluoromethyl)phenyl]carbonyl}amino)-2,3-dihydro-1-benzofuran-7-carboxamide], for which the IC50 is 106 nM in the assay on A549 cells and 160 nM on human mPGES-1.

For orientation: IC50 means the concentration that gives 50% inhibition.
